“Also recorded” adds a separate entry of the source.

One series deals with spleen cells of B6 mice. Nature of the series: Cytokine production by spleen cells treated with anti-CD3 antibody (ELISA). Format: cell-based. The protocol: FIG. 1. FIG. 1A depicts a graph showing the IL-2 inhibitory effect of R13D (compound III), R13096 (compound CXX), and R13015 (compound VI). FIG. 1B depicts a graph showing the IFN-gamma inhibitory effect of R13D (compound III), R13096 (compound CXX), and R13015 (compound VI).
FIG. 3. Depicts a graph showing Splenocytes that were cultured under various conditions as indicated on the X-axis. Twenty-four hours later, cytokines in the supernatant were determined by ELISA (R13D is compound III, R31C. is compound IV, R32D is compound VII).
To determine whether these inhibitors are effective in suppressing cytokine production by inflammatory cells, spleen cells of B6 mice were treated with anti-CD3 antibody (to activate the inflammatory cells) with or without different concentrations of the compounds. […] As further shown in FIG. 1 IL-2 and IFN-gamma were inhibited by […], and compound VI at concentrations ranging from 5-20 μM.

Series [1] concerns splenocytes or purified CD4+ splenic T cells of C57BL/6 mice. Nature of the series: Cell-based assay for testing c-Rel blockers: cytokine expression with anti-CD3 and anti-CD28. Also noted: IL-4 in culture: dose or concentration left out as unconfirmed. To be noted: for IL-2 production by T cells (IL-2 release assay, secondary screening): hits of virtual screening. The protocol:
(§1) Splenocytes of C57BL/6 mice (n=4) were cultured with or without plate-bound anti-CD3 (1 ug/ml) and soluble anti-CD28 (2 ug/ml), in the presence of various concentrations of R96 as indicated. R96 was dissolved in PBS, and the amount of the PBS added to each culture was identical ([…]). Twenty-four hours later, cytokines in the supernatant were determined by ELISA (A-C). The percentages of dead cells in the culture were determined by flow cytometry following staining cells with annexin-V and propidium iodide (PI)(D).
To design drugs that could disable human c-Rel binding to DNA (therefore blocking the biological activity of c-Rel), chicken c-Rel 3-D model was first humanized by replacing chicken residues with their human counterparts. The model was then minimized using the Insight II software (Accelrys, Inc). The minimized model was used to discover small molecule inhibitors that can interfere with the residues in loops L1 and L2. A small druggable cavity was identified using programs available in Insight II. This structure was designated as the L1 cavity. The L1 cavity is formed by loops L1, L2 and a helix. Residues Arg 21, Cys 26, Glu 27, Lys 110 and Lys 111 form the mouth of the L1 cavity (FIG. 2). A virtual screening approach was used to identify small molecule inhibitors that block DNA binding to the L1 cavity by perturbing these key contact residues as we previously described. From ˜50,000 drug-like molecules of available chemical libraries, about 100 hits were identified. […] These compounds fall into two structural classes, the phenylcarbamates (FIG. 2C) and sulfanyl-methaniminium-based compounds, represented by R13:
To determine whether the c-Rel blockers identified above are effective in regulating inflammatory cell function, splenocytes or purified CD4+ splenic T cells of C57BU6 mice were treated with anti-CD3 and anti-CD28 in the presence of increasing concentrations of the compounds. Cytokine expression was determined by ELISA, flow cytometry or real-time PCR, whereas CD4 expression and cell survival were determined by flow cytometry alone. […]

Series [2] has as its system C57BL/6 mice immunized to induce EAE. Nature of the series: EAE induced with MOG38-50 peptide, prevention and treatment. The conditions noted are these: for treating ongoing EAE (after onset): i.p. daily after onset, 100 ug/mouse/injection. Format: in vivo.
In series [3] the test system is splenocytes or CD4+ T cells of C57BL/6 mice. Description: Cell survival / dead cells by flow cytometry (annexin-V and propidium iodide). Type of series: cell-based. Also noted: survival of CD4+ T cells or total splenocytes: dose or concentration left out as unconfirmed. The protocol:
as §1
To determine whether the c-Rel blockers identified above are effective in regulating inflammatory cell function, splenocytes or purified CD4+ splenic T cells of C57BU6 mice were treated with anti-CD3 and anti-CD28 in the presence of increasing concentrations of the compounds. Cytokine expression was determined by ELISA, flow cytometry or real-time PCR, whereas CD4 expression and cell survival were determined by flow cytometry alone. […] The IC50 of R96 for IL-2 inhibition is […]. […] Because Th1 cytokine IFN-g inhibits the activity of Th2 cells, the increased IL-4 in cultures containing […] R96 could be due to the reduced IFN-g in the culture. […] In fact, c-Rel-deficient mice have reduced but not increased IgG1, IgG3 and IgE production.
In general terms: A flow cytometer gives signals particle by particle.

[4] abbreviates: anti-CD3 treated spleen cells, 24 h, FIG. 3.
The mark [5] stands for this setting: FIG. 1, concentrations ranging from 5-20 μM.

Consider `O=C(Nc1ccccc1)OCc1nccn1Cc1ccc(Cl)cc1` [R13], for which, in the series with spleen cells of B6 mice (setting [4]), the “Interleukin (IL)-2 production” value is “significantly inhibited” and the interferon-gamma production result is “significantly inhibited”. Further, the “IL-2 production by T cells (IL-2 release assay, secondary screening)” value in series [1] is “significantly inhibited”. Also, the “treating ongoing EAE (after onset)” value in series [2] is recorded as “statistically significant; also recorded: significantly ameliorated”. Also, the “preventing EAE (prophylaxis)” value in series [2] (i.p. daily from day 1 to day 13, 100 ug/mouse/injection (100 mg)) is listed as “statistically significant”.
`Br.N#Cc1ccc(CSC(=N)Nc2ccccc2)cc1` [R96]: the IL-4 in culture result in series [1] (cultures containing R96) is on record as “increased”. Also, the “IL-2 production by T cells (IL-2 release assay, secondary screening)” value in series [1] is recorded as “most potent”. The “survival of CD4+ T cells or total splenocytes” value in series [3] (highest concentration tested) is “does not significantly affect”. In series [3] (various concentrations, 24 h), the “percentage of annexin-V+ and PI+ cells (dead cells)” value is reported as “No significant differences”. The “treating ongoing EAE (after onset)” value in series [2] is “statistically significant; also recorded: significantly ameliorated”. This compound also displayed a mean disease score in series [2] (seven days into the treatment after onset, FIG. 5C, control 1.83±0.16, p<0.001) of 0.75±0.43.
Take `CC(C)(C)c1cc(NC(=O)/C(C#N)=C/c2cccc(Cl)c2Cl)c(C(N)=O)s1` [compound V]: in the series with spleen cells of B6 mice (setting [5]), the IFN-gamma inhibition result is “inhibited” and the IL-2 inhibition entry is given as “inhibited”.
